Reference: PubChem BioAssay (NCI)
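1) Cells in 96-well plates. 2) Compound, 48 h, 5 concentrations. 3) Linear interpolation between surrounding doses. 4) Unreached endpoint = highest concentration. Here, GI50 denotes the concentration required for 50% inhibition of growth. TGI is the concentration that stops growth completely.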

Experiments:
Assay in all cases: growth of human tumour cells (NCI), 48 h
OVCAR-3 ovarian = test system: OVCAR-3 ovarian
MOLT-4 leukemia = test system: MOLT-4 leukemia
HT29 colon = test system: HT29 colon
U251 CNS = test system: U251 CNS
NCI-H522 lung = test system: NCI-H522 lung
MCF7 breast = test system: MCF7 breast
CAKI-1 renal = test system: CAKI-1 renal
HS 578T breast = test system: HS 578T breast
SF-295 CNS = test system: SF-295 CNS
NCI-H460 lung = test system: NCI-H460 lung
UO-31 renal = test system: UO-31 renal
HOP-62 NSCLC = test system: HOP-62 NSCLC
HCT-15 colon = test system: HCT-15 colon
K-562 leukemia = test system: K-562 leukemia
CCRF-CEM leukemia = test system: CCRF-CEM leukemia
RXF 393 renal = test system: RXF 393 renal
HCC-2998 colon = test system: HCC-2998 colon
IGROV1 ovarian = test system: IGROV1 ovarian
MDA-MB-435 = test system: MDA-MB-435
T-47D breast = test system: T-47D breast
SK-MEL-2 melanoma = test system: SK-MEL-2 melanoma
OVCAR-4 ovarian = test system: OVCAR-4 ovarian
RPMI-8226 leukemia = test system: RPMI-8226 leukemia
UACC-257 melanoma = test system: UACC-257 melanoma
HL-60(TB) leukemia = test system: HL-60(TB) leukemia
SW-620 colon = test system: SW-620 colon
OVCAR-8 ovarian = test system: OVCAR-8 ovarian
SNB-19 CNS = test system: SNB-19 CNS
LOX IMVI melanoma = test system: LOX IMVI melanoma
PC-3 prostate = test system: PC-3 prostate
M14 melanoma = test system: M14 melanoma
EKVX NSCLC = test system: EKVX NSCLC
KM12 colon = test system: KM12 colon
MDA-MB-231 breast = test system: MDA-MB-231 breast
SK-OV-3 ovarian = test system: SK-OV-3 ovarian
SNB-75 CNS = test system: SNB-75 CNS
ACHN renal = test system: ACHN renal
UACC-62 melanoma = test system: UACC-62 melanoma
A498 renal = test system: A498 renal
SK-MEL-28 melanoma = test system: SK-MEL-28 melanoma
DU-145 prostate = test system: DU-145 prostate
NCI/ADR-RES ovarian = test system: NCI/ADR-RES ovarian
SR leukemia = test system: SR leukemia
NCI-H226 lung = test system: NCI-H226 lung
SF-268 CNS = test system: SF-268 CNS
COLO 205 colon = test system: COLO 205 colon
SK-MEL-5 melanoma = test system: SK-MEL-5 melanoma
SF-539 CNS = test system: SF-539 CNS
NCI-H23 lung = test system: NCI-H23 lung
A549 NSCLC = test system: A549 NSCLC
HOP-92 NSCLC = test system: HOP-92 NSCLC
TK-10 renal = test system: TK-10 renal
OVCAR-5 ovarian = test system: OVCAR-5 ovarian
HCT-116 colon = test system: HCT-116 colon
SN12C renal = test system: SN12C renal
BT-549 breast = test system: BT-549 breast
786-0 renal = test system: 786-0 renal

Cc1ccc(C(=O)N/N=C(\N=Nc2ccccc2)c2ccc(N(CCC#N)CCC#N)cc2C)cc1
TGI (OVCAR-3 ovarian): > 100 µM | TGI (MOLT-4 leukemia): > 100 µM | TGI (HT29 colon): > 100 µM | TGI (U251 CNS): > 100 µM | TGI (NCI-H522 lung): 61.3 µM | TGI (MCF7 breast): > 100 µM | TGI (CAKI-1 renal): > 100 µM | TGI (HS 578T breast): > 100 µM | TGI (SF-295 CNS): > 100 µM | TGI (NCI-H460 lung): > 100 µM | TGI (UO-31 renal): > 100 µM | TGI (HOP-62 NSCLC): 52.9 µM | TGI (HCT-15 colon): > 100 µM | TGI (K-562 leukemia): > 100 µM | TGI (CCRF-CEM leukemia): > 100 µM | TGI (RXF 393 renal): > 100 µM | TGI (HCC-2998 colon): > 100 µM | TGI (IGROV1 ovarian): > 100 µM | TGI (MDA-MB-435): > 100 µM | TGI (T-47D breast): > 100 µM | TGI (SK-MEL-2 melanoma): > 100 µM | TGI (OVCAR-4 ovarian): > 100 µM | TGI (RPMI-8226 leukemia): > 100 µM | TGI (UACC-257 melanoma): > 100 µM | TGI (HL-60(TB) leukemia): > 100 µM | TGI (SW-620 colon): > 100 µM | TGI (OVCAR-8 ovarian): > 100 µM | TGI (SNB-19 CNS): > 100 µM | TGI (LOX IMVI melanoma): > 100 µM | TGI (PC-3 prostate): > 100 µM | TGI (M14 melanoma): > 100 µM | TGI (EKVX NSCLC): > 100 µM | TGI (KM12 colon): > 100 µM | TGI (MDA-MB-231 breast): > 100 µM | TGI (SK-OV-3 ovarian): > 100 µM | TGI (SNB-75 CNS): > 100 µM | TGI (ACHN renal): > 100 µM | TGI (UACC-62 melanoma): > 100 µM | TGI (A498 renal): > 100 µM | TGI (SK-MEL-28 melanoma): > 100 µM | TGI (DU-145 prostate): > 100 µM | TGI (NCI/ADR-RES ovarian): > 100 µM | TGI (SR leukemia): > 100 µM | TGI (NCI-H226 lung): > 100 µM | TGI (SF-268 CNS): 61.7 µM | TGI (COLO 205 colon): > 100 µM | TGI (SK-MEL-5 melanoma): > 100 µM | TGI (SF-539 CNS): 39.9 µM | TGI (NCI-H23 lung): > 100 µM | TGI (A549 NSCLC): > 100 µM | TGI (HOP-92 NSCLC): > 100 µM | TGI (TK-10 renal): > 100 µM | TGI (OVCAR-5 ovarian): > 100 µM

Nc1nc(Cl)c2ncn(Cc3ccc(-c4ccc(CCl)cc4)cc3)c2n1
GI50 (OVCAR-3 ovarian): 7.3 µM | TGI (OVCAR-3 ovarian): 32 µM | GI50 (MOLT-4 leukemia): > 100 µM | TGI (MOLT-4 leukemia): > 100 µM | GI50 (HT29 colon): 11.3 µM | TGI (HT29 colon): 43.1 µM | GI50 (NCI-H522 lung): > 100 µM | TGI (NCI-H522 lung): > 100 µM | GI50 (MCF7 breast): 7.31 µM | TGI (MCF7 breast): 71.7 µM | GI50 (CAKI-1 renal): 5.76 µM | TGI (CAKI-1 renal): 33.3 µM | GI50 (HCT-116 colon): 6.71 µM | TGI (HCT-116 colon): 23.7 µM | GI50 (HS 578T breast): 43.4 µM | TGI (HS 578T breast): > 100 µM | GI50 (SF-295 CNS): 17.4 µM | TGI (SF-295 CNS): > 100 µM | GI50 (NCI-H460 lung): 20.4 µM | TGI (NCI-H460 lung): 69.1 µM | GI50 (UO-31 renal): 17.7 µM | TGI (UO-31 renal): > 100 µM | GI50 (HOP-62 NSCLC): 15 µM | TGI (HOP-62 NSCLC): 34.8 µM | GI50 (K-562 leukemia): 13.9 µM | TGI (K-562 leukemia): > 100 µM | GI50 (RXF 393 renal): 12.1 µM | TGI (RXF 393 renal): 54.4 µM | GI50 (IGROV1 ovarian): 12.5 µM | TGI (IGROV1 ovarian): > 100 µM | GI50 (MDA-MB-435): 14.6 µM | TGI (MDA-MB-435): 36.3 µM | GI50 (SK-MEL-2 melanoma): 33.9 µM | TGI (SK-MEL-2 melanoma): > 100 µM | GI50 (OVCAR-4 ovarian): 8.12 µM | TGI (OVCAR-4 ovarian): 43.6 µM | GI50 (RPMI-8226 leukemia): 1.43 µM | TGI (RPMI-8226 leukemia): 5.58 µM | GI50 (UACC-257 melanoma): 3.24 µM | TGI (UACC-257 melanoma): 15.2 µM | GI50 (HL-60(TB) leukemia): 19.4 µM | TGI (HL-60(TB) leukemia): > 100 µM | GI50 (SW-620 colon): 14.1 µM | TGI (SW-620 colon): 76.1 µM | GI50 (OVCAR-8 ovarian): 7.86 µM | TGI (OVCAR-8 ovarian): 29.5 µM | GI50 (SNB-19 CNS): 38.4 µM | TGI (SNB-19 CNS): > 100 µM | GI50 (SN12C renal): 2.54 µM | TGI (SN12C renal): 10.1 µM | GI50 (PC-3 prostate): 9.08 µM | TGI (PC-3 prostate): > 100 µM | GI50 (M14 melanoma): 13.3 µM | TGI (M14 melanoma): 29.4 µM | GI50 (EKVX NSCLC): 10.6 µM | TGI (EKVX NSCLC): 40.1 µM | GI50 (BT-549 breast): 7.13 µM | TGI (BT-549 breast): 37.8 µM | GI50 (KM12 colon): 27.7 µM | TGI (KM12 colon): > 100 µM | GI50 (SK-OV-3 ovarian): 37.1 µM | TGI (SK-OV-3 ovarian): > 100 µM | GI50 (SNB-75 CNS): 10.3 µM | TGI (SNB-75 CNS): 28.1 µM | GI50 (786-0 renal): 12.9 µM | TGI (786-0 renal): > 100 µM | GI50 (ACHN renal): 4.5 µM | TGI (ACHN renal): > 100 µM | GI50 (UACC-62 melanoma): 9.26 µM | TGI (UACC-62 melanoma): 23 µM | GI50 (A498 renal): 35.2 µM | TGI (A498 renal): > 100 µM | GI50 (SK-MEL-28 melanoma): 14.7 µM | TGI (SK-MEL-28 melanoma): 33.7 µM | GI50 (DU-145 prostate): 12.6 µM | TGI (DU-145 prostate): 25.6 µM | GI50 (NCI/ADR-RES ovarian): 10.4 µM | TGI (NCI/ADR-RES ovarian): 34.3 µM | GI50 (SR leukemia): 3.09 µM | TGI (SR leukemia): > 100 µM | GI50 (NCI-H226 lung): 3.47 µM | TGI (NCI-H226 lung): 17.9 µM | GI50 (SF-268 CNS): 16.2 µM | TGI (SF-268 CNS): 36.5 µM | GI50 (COLO 205 colon): 7.17 µM | TGI (COLO 205 colon): 74.4 µM | GI50 (SK-MEL-5 melanoma): 4.42 µM | TGI (SK-MEL-5 melanoma): 18.9 µM | GI50 (SF-539 CNS): 10.9 µM | TGI (SF-539 CNS): 26.6 µM | GI50 (NCI-H23 lung): 5.6 µM | TGI (NCI-H23 lung): 19.9 µM | GI50 (A549 NSCLC): 19.3 µM | TGI (A549 NSCLC): > 100 µM | GI50 (HOP-92 NSCLC): 1.3 µM | TGI (HOP-92 NSCLC): 23.6 µM | GI50 (TK-10 renal): 6.44 µM | TGI (TK-10 renal): 19.8 µM | GI50 (OVCAR-5 ovarian): 20.8 µM | TGI (OVCAR-5 ovarian): > 100 µM
